Key:
Tie-2 = biological target: T1, Tie-2 (Homo sapiens, UniProt Q02763); test: standard tyrosine kinase assay: phosphorylation of poly(GluTyr) by GST-fusion kinase domain; format: biochemical; conditions: kinase inhibitory profile
T1 construct: GST-fusion proteins of the kinase domains of several tyrosine kinase receptors; GST

C-Met = biological target: T2, C-Met (Homo sapiens, UniProt P08581); test: as above; format: biochemical; conditions: kinase inhibitory profile
T2 construct: GST-fusion proteins of the kinase domains of several tyrosine kinase receptors; GST
T2 sequence (P08581 1078-1345 limits assumed): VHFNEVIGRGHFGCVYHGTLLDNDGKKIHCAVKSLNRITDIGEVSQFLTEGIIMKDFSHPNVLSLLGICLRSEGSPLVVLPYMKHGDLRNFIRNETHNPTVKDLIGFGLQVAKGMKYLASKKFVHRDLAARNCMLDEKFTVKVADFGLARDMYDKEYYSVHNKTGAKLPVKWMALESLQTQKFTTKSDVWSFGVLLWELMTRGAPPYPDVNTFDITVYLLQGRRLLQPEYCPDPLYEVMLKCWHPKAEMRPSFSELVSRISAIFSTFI

PDGF receptors = test: cellular autophosphorylation assay, Chinese hamster ovary cells transfected with RTK gene; format: cell-based; conditions: transfected CHO cells
Procedure: (§1) In vivo activity requires drugs to enter cells and therefore agents are tested in cellular autophosphorylation assays, using Chinese hamster ovary cells transfected with one of several RTK genes.

[1] = test system: other RTKs including VEGF receptors; test: standard tyrosine kinase assay, other RTKs; format: biochemical
Flk-1 = biological target: T3, Flk-1 (Mus musculus, UniProt P35918); test: standard tyrosine kinase assay: phosphorylation of poly(GluTyr) by GST-fusion kinase domain; format: biochemical; conditions: kinase inhibitory profile, Table I
T3 construct: GST-fusion proteins of the kinase domains of several tyrosine kinase receptors; GST
T3 sequence (P35918 832-1160 limits assumed): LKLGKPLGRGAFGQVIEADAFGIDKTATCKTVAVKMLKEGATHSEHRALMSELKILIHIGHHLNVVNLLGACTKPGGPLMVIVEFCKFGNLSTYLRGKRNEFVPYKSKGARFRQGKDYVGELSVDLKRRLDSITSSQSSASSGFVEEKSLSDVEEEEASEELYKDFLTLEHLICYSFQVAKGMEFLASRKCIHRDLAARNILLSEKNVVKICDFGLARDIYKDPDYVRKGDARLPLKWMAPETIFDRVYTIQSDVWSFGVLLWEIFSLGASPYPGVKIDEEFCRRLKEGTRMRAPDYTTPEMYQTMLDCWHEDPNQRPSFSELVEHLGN

VEGF receptors = test: cellular autophosphorylation assay, Chinese hamster ovary cells transfected with RTK gene; conditions: transfected CHO cells
Procedure: as §1

Flt-1 = biological target: T4, Flt-1 (Homo sapiens, UniProt P17948); test: standard tyrosine kinase assay: phosphorylation of poly(GluTyr) by GST-fusion kinase domain; format: biochemical
T4 construct: GST-fusion proteins of the kinase domains of several tyrosine kinase receptors; GST
T4 sequence (P17948 827-1158 limits assumed): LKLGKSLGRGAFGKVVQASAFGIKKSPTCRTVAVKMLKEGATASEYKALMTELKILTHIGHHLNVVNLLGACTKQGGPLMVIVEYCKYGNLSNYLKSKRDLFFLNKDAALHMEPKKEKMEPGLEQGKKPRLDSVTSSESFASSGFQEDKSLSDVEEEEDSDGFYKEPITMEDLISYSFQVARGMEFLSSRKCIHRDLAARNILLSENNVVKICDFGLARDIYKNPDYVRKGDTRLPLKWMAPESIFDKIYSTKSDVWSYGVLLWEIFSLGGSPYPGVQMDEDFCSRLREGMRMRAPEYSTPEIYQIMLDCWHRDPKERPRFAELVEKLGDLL

[2] = test system: mice with ischemic retinopathy; test: retinal neovascularization in mice with oxygen-induced ischemic retinopathy; conditions: P17 mice
Procedure: Ischemic retinopathy is produced in C57/BL6J mice by the following method: Seven-day-old mice and their mothers are placed in an airtight incubator and exposed to an atmosphere of 75±3% oxygen for 5 days. Incubator temperature is maintained at 23±2° C., and oxygen is measured every 8 hours with an oxygen analyzer. After 5 days, the mice are removed from the incubator, placed in room air, and drug treatment is begun. […] Vehicle (control) or vehicle containing various concentrations of drug (volume =50 μl in neonates and 100 μl in adult mice) is placed in the stomach by gavage. After 5 days of treatment at P17, mice are sacrificed, eyes are rapidly removed and frozen in optimum cutting temperature embedding compound (OCT; Miles Diagnostics, Elkhart, IN) or fixed in 10% phosphate-buffered formalin and embedded in paraffin. Adult C57BL6J mice are also treated by gavage with drug or vehicle and after 5 days, they are sacrificed and their eyes are processed for frozen or paraffin sections.
Slides are rinsed with 0.05M Tris-buffered saline, pH 7.6 (TBS) and incubated 2 hours at room temperature with biotinylated lectin. […] Some slides are counterstained with hematoxyfn and all are mounted with Cytoseal.
The entire eye is sampled by staining sections roughly 50-60 μm apart, which provided 13 sections per eye for analysis. […] The mean of the 13 measurements from each eye is used as a single experimental value.

c-erbB2 = c-erbB2 (Homo sapiens, UniProt P04626); test: cellular autophosphorylation assay, Chinese hamster ovary cells transfected with RTK gene; conditions: transfected CHO cells
c-erbB2, sequence (P04626 23-1255): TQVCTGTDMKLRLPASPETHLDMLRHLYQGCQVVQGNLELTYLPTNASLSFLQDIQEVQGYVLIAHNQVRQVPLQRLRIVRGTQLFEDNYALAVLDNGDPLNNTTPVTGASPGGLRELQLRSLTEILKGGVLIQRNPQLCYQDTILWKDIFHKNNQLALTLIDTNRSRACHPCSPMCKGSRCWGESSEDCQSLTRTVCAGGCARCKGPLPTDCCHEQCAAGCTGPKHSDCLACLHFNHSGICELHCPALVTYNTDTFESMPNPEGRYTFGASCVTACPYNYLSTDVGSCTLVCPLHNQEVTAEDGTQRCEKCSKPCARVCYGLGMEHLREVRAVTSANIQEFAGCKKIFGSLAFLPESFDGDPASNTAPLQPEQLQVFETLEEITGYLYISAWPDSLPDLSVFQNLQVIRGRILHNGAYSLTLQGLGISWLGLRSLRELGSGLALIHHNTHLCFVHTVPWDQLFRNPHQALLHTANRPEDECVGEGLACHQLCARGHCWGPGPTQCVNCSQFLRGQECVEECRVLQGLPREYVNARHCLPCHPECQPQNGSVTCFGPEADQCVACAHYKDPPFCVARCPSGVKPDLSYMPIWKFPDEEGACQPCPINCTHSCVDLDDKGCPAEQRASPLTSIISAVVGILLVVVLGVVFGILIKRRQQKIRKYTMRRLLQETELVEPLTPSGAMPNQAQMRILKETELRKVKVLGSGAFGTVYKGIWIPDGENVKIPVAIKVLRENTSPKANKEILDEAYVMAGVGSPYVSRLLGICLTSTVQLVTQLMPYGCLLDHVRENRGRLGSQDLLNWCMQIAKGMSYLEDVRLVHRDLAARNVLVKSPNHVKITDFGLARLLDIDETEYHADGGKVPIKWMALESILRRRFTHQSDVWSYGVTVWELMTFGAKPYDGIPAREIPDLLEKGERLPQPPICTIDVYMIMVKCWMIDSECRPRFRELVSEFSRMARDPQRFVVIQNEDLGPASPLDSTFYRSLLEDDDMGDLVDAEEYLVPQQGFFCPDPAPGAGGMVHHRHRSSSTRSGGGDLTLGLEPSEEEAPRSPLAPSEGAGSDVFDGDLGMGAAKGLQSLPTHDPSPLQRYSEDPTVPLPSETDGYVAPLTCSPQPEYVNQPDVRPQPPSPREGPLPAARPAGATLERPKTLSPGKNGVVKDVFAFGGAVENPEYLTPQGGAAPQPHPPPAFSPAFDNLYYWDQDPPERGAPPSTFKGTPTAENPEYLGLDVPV
Procedure: as §1

[3] = test system: mice with choroidal neovascularization; test: laser-induced choroidal neovascularization in mice; conditions: 50 mg/kg/day by gavage, two weeks after laser
[4] = test system: developing retinal vessels of neonatal mice; test: drug treatment of mice during retinal vascular development; format: in vivo, C57/BL6J mice
Procedure: […] of newborn C57/BL6J mice are divided into treatment and control groups which received daily subcutaneous injections of 10 mg/kg of drug or vehicle, respectively. At P7 or P10, mice are anesthetized with ether, and perfused with 1 ml of phosphate-buffered saline containing 50 mg/ml of fluorescein-labeled dextran (2×10^6 average mw, Sigma, St. Louis, Mo.).. The eyes are removed and fixed for 1 hour in 10% phosphate-buffered formalin. The cornea and […] are removed and the entire retina is carefully dissected from the eyecup, radially cut from the edge of the retina to the equator in all 4 quadrants, and flat-mounted in Aquamount. with photoreceptors facing upward.

insulin receptor = insulin receptor (Homo sapiens, UniProt P06213); test: cellular autophosphorylation assay, Chinese hamster ovary cells transfected with RTK gene; conditions: transfected CHO cells
insulin receptor, sequence (P06213 28-1382, species assumed): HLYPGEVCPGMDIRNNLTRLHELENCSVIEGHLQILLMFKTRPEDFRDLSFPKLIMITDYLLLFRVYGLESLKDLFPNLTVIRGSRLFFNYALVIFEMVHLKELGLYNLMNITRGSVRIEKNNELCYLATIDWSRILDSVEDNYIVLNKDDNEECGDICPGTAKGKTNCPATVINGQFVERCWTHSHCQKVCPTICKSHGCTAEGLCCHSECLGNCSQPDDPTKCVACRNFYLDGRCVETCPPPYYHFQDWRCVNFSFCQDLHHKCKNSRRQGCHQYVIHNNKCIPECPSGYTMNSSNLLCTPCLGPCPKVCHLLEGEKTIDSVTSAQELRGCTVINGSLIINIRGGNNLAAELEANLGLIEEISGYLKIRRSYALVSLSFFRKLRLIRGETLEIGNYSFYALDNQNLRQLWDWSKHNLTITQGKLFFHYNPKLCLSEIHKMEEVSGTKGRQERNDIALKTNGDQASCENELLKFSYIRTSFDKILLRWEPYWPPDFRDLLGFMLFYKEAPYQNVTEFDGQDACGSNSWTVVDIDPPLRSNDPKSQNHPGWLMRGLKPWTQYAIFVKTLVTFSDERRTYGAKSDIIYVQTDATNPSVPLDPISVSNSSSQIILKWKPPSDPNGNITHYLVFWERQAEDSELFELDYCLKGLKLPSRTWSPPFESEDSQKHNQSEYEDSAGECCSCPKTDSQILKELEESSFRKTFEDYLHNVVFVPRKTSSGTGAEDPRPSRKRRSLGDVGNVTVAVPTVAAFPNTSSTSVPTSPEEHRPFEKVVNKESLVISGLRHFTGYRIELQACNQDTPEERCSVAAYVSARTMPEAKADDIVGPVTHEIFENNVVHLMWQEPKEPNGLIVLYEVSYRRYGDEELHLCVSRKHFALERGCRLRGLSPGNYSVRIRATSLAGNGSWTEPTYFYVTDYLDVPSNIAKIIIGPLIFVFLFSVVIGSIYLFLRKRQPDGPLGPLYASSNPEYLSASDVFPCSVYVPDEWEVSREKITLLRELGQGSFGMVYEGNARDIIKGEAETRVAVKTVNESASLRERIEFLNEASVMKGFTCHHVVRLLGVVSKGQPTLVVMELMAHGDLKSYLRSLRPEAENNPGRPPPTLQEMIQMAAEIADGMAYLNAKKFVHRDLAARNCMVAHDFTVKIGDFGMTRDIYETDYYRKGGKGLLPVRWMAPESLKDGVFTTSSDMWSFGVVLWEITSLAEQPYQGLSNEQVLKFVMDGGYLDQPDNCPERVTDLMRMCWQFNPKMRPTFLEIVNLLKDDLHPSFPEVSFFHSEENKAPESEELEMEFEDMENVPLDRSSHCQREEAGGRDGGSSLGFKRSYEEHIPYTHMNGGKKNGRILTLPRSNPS
Procedure: as §1

[5] = test system: retinal vessels in adult mice; test: effect on retinal vessels in adult mice; format: in vivo, C57BL6J mice; conditions: 50 mg/kg/day, 5 days
Procedure: Ischemic retinopathy is produced in C57/BL6J mice by the following method: Seven-day-old mice and their mothers are placed in an airtight incubator and exposed to an atmosphere of 75±3% oxygen for 5 days. Incubator temperature is maintained at 23±2° C., and oxygen is measured every 8 hours with an oxygen analyzer. After 5 days, the mice are removed from the incubator, placed in room air, and drug treatment is begun. […] Vehicle (control) or vehicle containing various concentrations of drug (volume =50 μl in neonates and 100 μl in adult mice) is placed in the stomach by gavage. After 5 days of treatment at P17, mice are sacrificed, eyes are rapidly removed and frozen in optimum cutting temperature embedding compound (OCT; Miles Diagnostics, Elkhart, IN) or fixed in 10% phosphate-buffered formalin and embedded in paraffin. Adult C57BL6J mice are also treated by gavage with drug or vehicle and after 5 days, they are sacrificed and their eyes are processed for frozen or paraffin sections. […] Slides are rinsed with 0.05M Tris-buffered saline, pH 7.6 (TBS) and incubated 2 hours at room temperature with biotinylated lectin. […] Some slides are counterstained with hematoxyfn and all are mounted with Cytoseal. […] The mean of the 13 measurements from each eye is used as a single experimental value.

c-Kit = c-Kit (Homo sapiens, UniProt P10721); conditions: transfected CHO cells
c-Kit, sequence (P10721 26-976): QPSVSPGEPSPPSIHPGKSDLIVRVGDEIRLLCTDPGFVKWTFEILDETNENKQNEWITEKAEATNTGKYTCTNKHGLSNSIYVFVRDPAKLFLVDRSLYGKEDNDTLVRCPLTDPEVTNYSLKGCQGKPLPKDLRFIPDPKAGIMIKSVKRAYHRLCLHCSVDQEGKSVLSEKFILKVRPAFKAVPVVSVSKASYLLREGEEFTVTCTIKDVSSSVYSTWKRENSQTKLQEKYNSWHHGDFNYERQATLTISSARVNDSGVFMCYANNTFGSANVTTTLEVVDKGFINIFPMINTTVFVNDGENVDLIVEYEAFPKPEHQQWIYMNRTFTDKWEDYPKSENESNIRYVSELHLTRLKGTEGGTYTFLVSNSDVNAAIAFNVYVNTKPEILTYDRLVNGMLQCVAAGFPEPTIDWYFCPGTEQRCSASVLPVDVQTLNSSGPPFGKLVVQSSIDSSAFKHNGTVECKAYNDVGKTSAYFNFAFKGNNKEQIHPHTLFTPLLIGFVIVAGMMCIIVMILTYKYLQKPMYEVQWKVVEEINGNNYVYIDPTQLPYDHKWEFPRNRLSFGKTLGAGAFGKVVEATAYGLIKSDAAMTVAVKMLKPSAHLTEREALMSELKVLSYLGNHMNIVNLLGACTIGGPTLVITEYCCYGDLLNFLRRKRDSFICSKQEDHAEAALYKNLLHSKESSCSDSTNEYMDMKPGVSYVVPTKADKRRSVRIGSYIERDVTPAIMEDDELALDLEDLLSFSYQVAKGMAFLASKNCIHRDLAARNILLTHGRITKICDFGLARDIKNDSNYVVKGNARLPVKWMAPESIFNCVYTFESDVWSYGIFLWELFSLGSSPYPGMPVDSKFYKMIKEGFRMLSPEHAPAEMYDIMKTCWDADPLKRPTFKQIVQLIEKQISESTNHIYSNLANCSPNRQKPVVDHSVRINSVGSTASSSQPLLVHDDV

T1 sequence (Q02763 824-1096 limits assumed, species assumed): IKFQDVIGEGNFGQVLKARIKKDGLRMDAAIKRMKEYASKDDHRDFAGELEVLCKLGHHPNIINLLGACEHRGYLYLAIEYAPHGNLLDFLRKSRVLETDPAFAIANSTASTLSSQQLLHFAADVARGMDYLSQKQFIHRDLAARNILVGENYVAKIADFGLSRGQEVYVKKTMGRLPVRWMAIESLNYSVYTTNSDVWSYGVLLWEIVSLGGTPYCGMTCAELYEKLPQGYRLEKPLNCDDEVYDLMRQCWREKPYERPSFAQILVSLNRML

With `Cc1ccc(NC(=O)c2ccccc2)cc1Nc1nccc(-c2cccnc2)n1` [CGP 53 716] as the compound, how does the IC50 (Tie-2) read?
Its IC50 is > 1000 nM.

What about the IC50 (C-Met) of the same compound?
The IC50 was > 10000 nM.

What about the “inhibition of autophosphorylation of PDGF receptors” value (PDGF receptors) of the same compound?
Its value is “potent inhibitors”.

What about the “inhibitory activity on other RTKs including VEGF receptors” value [1] of the same compound?
Its value is “little or no inhibitory activity”.

And the IC50 (Flk-1)?
Its IC50 is > 1000 nM.

And the “inhibition of autophosphorylation of VEGF receptors” value (VEGF receptors)?
Its value is “poor inhibitors”.

What about the IC50 (Flt-1; kinase inhibitory profile) of the same compound?
The IC50 was > 1000 nM.

What does the source list for `Cc1ccc(NC(=O)c2ccc(CN3CCN(C)CC3)cc2)cc1Nc1nccc(-c2cccnc2)n1` [CGP 57 148B]?
inhibition of autophosphorylation of PDGF receptors (PDGF receptors): potent inhibitors; inhibitory activity on other RTKs including VEGF receptors [1]: little or no inhibitory activity; inhibition of autophosphorylation of VEGF receptors (VEGF receptors): poor inhibitors

`Clc1ccc(Nc2nnc(Cc3ccncc3)c3ccccc23)cc1` [CGP 79787D] was tested. Which “decrease of total endothelial staining in the retina” value ([2]; 0.25 mg/kg) did it give?
Its value is “not statistically significant”.

What about the “staining in the inner nuclear layer” value ([2]; 0.25 mg/kg) of the same compound?
The value was “no identifiable decrease”.

What about the “endothelial cell staining in the retina” value ([2]; 2.5 mg/kg twice a day) of the same compound?
The value was “significantly less than vehicle-treated controls”.

And the “endothelial staining in the inner nuclear layer” value ([2]; 2.5 mg/kg twice a day)?
Its value is “some decrease”.

What about the “endothelial cell staining in inner nuclear layer and outer plexiform layer (deep capillary bed)” value ([2]; 25 mg/kg twice a day) of the same compound?
Its value is “striking absence”.

What about the “neovascularization (endothelial cells on the surface of the retina)” value ([2]; 25 mg/kg twice a day, gavage, 5 days) of the same compound?
Its value is “complete inhibition”.

What about the “endothelial cell staining within the retina” value ([2]; 25 mg/kg twice a day, gavage, 5 days, versus vehicle) of the same compound?
Its value is “dramatic decrease”.

And the “inhibition of autophosphorylation of c-erbB2” value (c-erbB2)?
Its value is “poor inhibitor”.

What about the “appearance of overlying retinal vessels” value [3] of the same compound?
Its value is “appeared normal”.

And the “choroidal neovascularization at site of laser-induced rupture of Bruch's membrane” value [3]?
The value was “very little if any choroidal neovascularization”.

What about the “extension of retinal vessels toward the periphery at P7” value ([4]; 10 mg/kg daily injections from P0, P7) of the same compound?
The value was “only extended about half way to the periphery”.

And the “extension of superficial capillary bed at P10” value ([4]; 10 mg/kg daily injections from P0, P10)?
Its value is “has not yet reached the edge of the retina”.

What about the “inhibition of autophosphorylation of insulin receptor” value (insulin receptor) of the same compound?
Its value is “poor inhibitor”.

What about the “inhibition of autophosphorylation of PDGF receptors” value (PDGF receptors) of the same compound?
The value was “inhibits”.

What about the “total area of endothelial staining in the retina or appearance of retinal vessels versus vehicle” value [5] of the same compound?
The value was “no difference”.

And the “inhibition of autophosphorylation of VEGF receptors” value (VEGF receptors)?
Its value is “inhibits”.

What about the “inhibition of autophosphorylation of c-Kit” value (c-Kit) of the same compound?
Its value is “inhibits”.

And the “inhibition of phosphorylation by kinase domain of human VEGF receptor 1” value (Flt-1)?
The value was “good inhibitor”.
